# Laboratory results as given in US7101915B1, “P-terphenyl compounds” (Shionogi & Co., Ltd., priority 1996, dated 2006).
# Experiments:
# Format in all cases: cell-based
# [1] = system: C3H/HeN mouse splenocytes stimulated with Concanavalin A (Con A); experiment: Suppressive effect on mitogenic activity of mouse splenocytes in vitro, Con A as mitogen (MTT); conditions: Con A 5 μg/ml as mitogen, 3 days
# Protocol: (§1) Experiment 1 Suppressive Effect on a Mitogenic Activity of Mouse Splenocytes In Vitro
# (§2) In 96-well microtiter plate 5×10^5 C3H/HeN mouse splenocytes suspended in 0.1 ml of 10% fetal bovine serum-fortified RPMI 1640 medium containing 2 mM of sodium bicarbonate, 50 units/ml of penicillin, 50 μg/ml of streptomycin and 5×10^−5 M of 2-mercaptoethanol were added. Then, 5 μg/ml of Concanavalin A (Con A) or 10 μg/ml of lipopolysaccharide (LPS) as a mitogen and the compound of a pre-determined concentration of the present invention were added to each well so that a final volume of each well reached 0.2 ml. Each compound of the present invention was dissolved in dimethylsulfoxide (DMSO) and diluted with the above RPMI 1640 medium to adjust the final concentration of 100 ng/ml or less. The splenocytes in the 96-well microtiter plate were cultivated at 37° C. for 3 days in an incubator keeping the humidity 100%, carbon dioxide 5% and air 95%. Then, 25 μl of 6 mg/ml MTT [3-(4,5-dimethylthiazol-2-yl)-2,5-diphenyltetrazolium bromide] (Sigma) was added to the each well and cultivated at 37° C. for 4 hours under the same conditions. After the cultivation, 50 μl of 0.02 N hydrochloric acid in 20% sodium dodecyl sulfate (SDS) was added to formazan generated and left at 37° C. for 24 hours for dissolving formazan. An absorption intensity (OD) of formazan generated in proportion to the number of living cells was measured with an immunoreader (InterMed) equipped with a 570 nm filter (The Journal of Immunological Method, 65, 55-63, 1983). The 50% inhibitory concentration of a cell proliferation (IC 50) was calculated from a correlation between the concentration of the compound of the present invention and the absorption intensity.
# [2] = system: C3H/HeN mouse splenocytes stimulated with lipopolysaccharide (LPS); experiment: Suppressive effect on mitogenic activity of mouse splenocytes in vitro, LPS as mitogen (MTT); conditions: LPS 10 μg/ml as mitogen, 3 days
# Protocol: as §1, §2
# [3] = system: mouse thymoma strain EL4 cells; experiment: Anti-proliferative activity on EL4 cells (MTT); conditions: 3 days
# Protocol: Experiment 2 Anti-Proliferative Activity on EL4 Cells
# In 96-well microtiter plate 4×10^4/0.1 ml of mouse thymoma strain EL4 cells were added and 0.1 ml of the compound of the present invention was added to the mixture so that the concentration was in the range of 0-5,000 ng/ml. After the cultivation for 3 days, the IC50 was calculated by the MTT method as described in Experiment 1.
# [4] = system: IL-2 production of mouse T cell strain EL-4 (TPA); experiment: Suppressive effect on the cytokine production of mouse T cell strain EL-4: IL-2; conditions: EL-4, TPA 10 ng/ml, 24 hours, ELISA
# Protocol: (§3) Experiment 8 Suppressive Effect on the Cytokine Production of a Mouse T Cell Strain EL-4 In 48-well plate were added 2×10^5 mouse T cell strain EL-4 which were suspended in 0.2 ml of 1% fetal bovine serum-added RPMI 1640 medium (2 mM of sodium bicarbonate, 50 units/ml of penicillin, 50 μg/ml of streptomycin and 5×10^−5 M of 2-mercaptoethanol were added) and the compound of the present invention of a predetermined concentration. TPA was added as a cell stimulater at a final concentration of 10 ng/ml to adjust a final volume of each well to 0.4 ml. Each compound of the present invention was dissolved in DMSO and diluted with the above RPMI 1640 medium, and then for added at a final concentration of 100 ng/ml or less. The cells in the 48-well plate were cultivated in an incubator keeping the humidity 100%, carbon dioxide 5% and air 95% at 37° C. for 24 hours to collect a supernatant of each well. The amount of IL-2, IL-4 and IL-5 released in the medium of each well were measured with the ELISA kit (Amersham K. K.) to be taken as an index of the cytokine production of the cells. TPA free group (-TPA) was used as a control.
# [5] = system: IL-4 production of mouse T cell strain EL-4 (TPA); experiment: Suppressive effect on the cytokine production of mouse T cell strain EL-4: IL-4; conditions: EL-4, TPA 10 ng/ml, 24 hours, ELISA
# Protocol: as §3
# [6] = system: IL-5 production of mouse T cell strain EL-4 (TPA); experiment: Suppressive effect on the cytokine production of mouse T cell strain EL-4: IL-5; conditions: EL-4, TPA 10 ng/ml, 24 hours, ELISA
# Protocol: as §3
EL-4 IC50 [3] [µg/mL],Compound,ConA IC50 [1] [µg/mL],LPS IC50 [2] [µg/mL],other results
<0.02,CC/C=C\COc1ccc(-c2c(OC)cc(-c3ccc(O)cc3)c(OC)c2O)cc1O [Compound I-9],<0.02,<0.02,–
0.0462,COc1cc(-c2ccc(O)cc2)c(OC)c(CO)c1-c1ccc(OCC=C(C)C)c(OS(C)(=O)=O)c1 [Compound I-12],0.0013,0.0028,–
0.0374,CC#CCOc1ccc(-c2c(OC)cc(-c3ccc(O)cc3)c(OC)c2O)cc1O [Compound I-40],0.0061,0.0165,–
0.00489,COc1cc(-c2ccc(O)cc2)c(OC)c(O)c1-c1ccc(OCC=C(C)Cl)c(O)c1 [Compound I-41],0.00073,0.00174,–
0.0675,C=CCOc1ccc(-c2c(OC)cc(-c3ccc(O)cc3)c(OC)c2O)cc1O [Compound I-46],0.0106,0.0239,–
0.0317,C/C=C/COc1ccc(-c2c(OC)cc(-c3ccc(O)cc3)c(OC)c2O)cc1O [Compound I-49],0.00889,0.0162,–
0.0119,C/C=C\COc1ccc(-c2c(OC)cc(-c3ccc(O)cc3)c(OC)c2O)cc1O [Compound I-50],0.00383,0.0092,–
0.0234,COc1cc(-c2ccc3c(c2)OCO3)c(OC)c(O)c1-c1ccc(OCC=C(C)C)c(O)c1 [Compound I-62],0.0292,0.025,–
0.016,COc1cc(-c2ccc(OCc3ccccc3)c(O)c2)c(OC)cc1-c1ccc(OCc2ccccc2)c(O)c1 [Compound I-63],0.013,0.027,–
0.00048,COc1cc(-c2ccc(OCC=C(C)C)c(O)c2)c(OC)cc1-c1ccc(OCC=C(C)C)c(O)c1 [Compound I-66],0.00022,0.00035,–
0.0046,COc1cc(-c2ccc(O)cc2)c(OC)c(O)c1-c1ccc(OC/C=C/Br)c(O)c1 [Compound I-103],0.0034,0.0037,–
0.0027,COc1cc(-c2ccc(O)cc2)c(OC)c(C)c1-c1ccc(OCC=C(C)C)c(O)c1 [Compound I-106],0.0006,0.0004,–
0.012,COCOc1c(OC)c(-c2ccc(OC)cc2)cc(OC)c1-c1ccc(OCc2ccccc2)c(O)c1 [Compound I-107],0.0006,0.0007,–
<0.02,COCOc1c(OC)c(-c2ccc(OS(C)(=O)=O)cc2)cc(OC)c1-c1ccc(OCc2ccccc2)c(O)c1 [Compound I-163],<0.02,<0.02,–
<0.02,C/C=C\COc1ccc(-c2c(OC)cc(-c3ccc(O)cc3)c(OC)c2O)cc1O [Compound I-173],<0.02,<0.02,–
<0.02,C=C/C=C\COc1ccc(-c2c(OC)cc(-c3ccc(O)cc3)c(OC)c2O)cc1O [Compound I-175],<0.02,0.0294,–

EL-4 IC50 [3] [µg/mL],Compound,ConA IC50 [1] [µg/mL],LPS IC50 [2] [µg/mL],other results
<0.02,COc1cc(-c2ccc(O)cc2)c(OC)c(O)c1-c1ccc(OCc2ccco2)c(O)c1 [Compound I-211],<0.02,<0.02,–
0.312,COc1cc(-c2c(OC)cc(-c3ccc(OS(C)(=O)=O)cc3)c(OC)c2OS(C)(=O)=O)ccc1OCC=C(C)C [Compound I-248],<0.01,<0.01,–
<0.02,COc1cc(-c2ccc(N(C)C)cc2)c(OC)c(O)c1-c1ccc(OCC=C(C)C)c(O)c1 [Compound I-255],<0.02,<0.02,–
0.31,COc1cc(-c2ccc(N(C)C)cc2)c(OC)c(O)c1-c1ccc(OCc2ccc(C)cc2)c(O)c1 [Compound I-256],<0.02,0.0287,–
0.2,COc1ccccc1-c1cc(OC)c(-c2ccc(OCC=C(C)C)c(O)c2)c(O)c1OC [Compound I-276],0.0018,0.0031,–
0.0136,COc1cc(-c2ccc(O)cc2)c(OC)c(O)c1-c1ccc(OC/C=C(/C)CO)c(O)c1 [Compound I-299],0.00553,0.00785,–
0.0158,C#CC(O)COc1ccc(-c2c(OC)cc(-c3ccc(O)cc3)c(OC)c2O)cc1O (stereo not drawn) [Compound I-301],0.00706,0.011,IC50 IL-2 [4]: 0.5 µg/mL; IC50 IL-4 [5]: <0.01 µg/mL; IC50 IL-5 [6]: 0.12 µg/mL
0.0998,COc1cc(-c2ccc(N(C)C)cc2)c(OC)c(OS(C)(=O)=O)c1-c1ccc(OCc2ccccc2)c(O)c1 [Compound I-360],<0.02,<0.02,–
0.124,COc1cc(-c2ccc(C(C)C)cc2)c(OC)c(OS(C)(=O)=O)c1-c1ccc(OCc2ccccc2)c(O)c1 [Compound I-361],<0.02,<0.02,–
–,COc1cc(-c2ccc(OS(C)(=O)=O)cc2)c(OC)c(OS(C)(=O)=O)c1-c1ccc(OCCC=C(C)C)cc1 [Compound I-387],–,–,IC50 IL-2 [4]: >1 µg/mL; IC50 IL-4 [5]: 0.075 µg/mL; IC50 IL-5 [6]: 0.04 µg/mL
–,COc1cc(-c2ccc(OS(C)(=O)=O)cc2)c(OC)c(OS(C)(=O)=O)c1-c1ccc(OS(=O)(=O)c2ccc(C)cc2)c(OS(C)(=O)=O)c1 [Compound I-395],–,–,IC50 IL-2 [4]: >1 µg/mL; IC50 IL-4 [5]: 0.001 to 0.01 µg/mL; IC50 IL-5 [6]: >1 µg/mL
–,COc1cc(-c2ccc(OS(C)(=O)=O)cc2)c(OC)c(OS(C)(=O)=O)c1-c1ccc(OCc2ccc(-c3ccccc3)cc2)c(OS(C)(=O)=O)c1 [Compound I-403],–,–,IC50 IL-2 [4]: >1 µg/mL; IC50 IL-4 [5]: 0.013 µg/mL; IC50 IL-5 [6]: >1 µg/mL
>10,COc1cc(-c2ccc(OCc3ccccc3)c(N)c2)c(OC)cc1-c1ccc(OS(C)(=O)=O)cc1 [Compound I-418],0.255,0.497,–
0.0618,COc1cc(-c2c(OC)cc(-c3ccc(O)cc3)c(OC)c2CO)ccc1OCC=C(C)C [Compound I-513],0.00689,0.0111,–
–,COc1cc(-c2c(O)c(OC)c(-c3ccc(O)cc3)c(F)c2OC)ccc1OCC=C(C)C [Compound I-1107],–,–,"IC50 ([1]; Mus musculus, Splenocyte, 72 h, read-out: ConA IC50): 0.0058 µg/mL; IC50 ([2]; Mus musculus, Splenocyte, 72 h): 0.0091 µg/mL; IC50 ([3]; Mus musculus, 72 h, read-out: EL-4 IC50): 0.0341 µg/mL"
